Data set [1] deals with HCT116 cells. Description: Luciferase protein transduction. The conditions noted are these: HCT116, 2 µg recombinant luciferase with 10-32 µg peptide, 3 h in serum-free medium, mean of duplicates; result in words. Type of data set: cell-based, human. The procedure: To perform a rapid screening of the protein transduction activities of the two series of peptides, we selected to deliver the luciferase protein from Photinus pyralis, which has a molecular weight (MW) of 62 kDa and an isoelectric point (pI) of 6.3. Indeed, the measurement of the activity of this enzyme is fast and very sensitive. […] Increasing amounts of peptides were added to a fixed amount of luciferase, and after 3 h of incubation with the human colon cancer cells HCT116, enzymatic activity was measured.
Figure 1 Transduction of the luciferase protein. HCT116 cells in 48-well plates were treated with 2 µg of recombinant luciferase (Rec. Luc) (per duplicate) in the presence or absence of LAH4 peptides (LAH4-Ln series in (A) and LAH4-An series in (B)). After 3 h of incubation in serum-free medium, cells were washed once with 1 mL/well of phosphate buffer saline (PBS), lysed, and the luciferase activity was determined. […] For each peptide, four conditions were tested: 10, 16, 24 and 32 µg of peptide/2 µg recombinant luciferase, except for LAH4 (16, 24 and 32 µg). Non-complexed recombinant luciferase was used as the control (black bar). The hydrophilic angles are shown in italics. […] It is uncertain whether it counts as a property result. The luciferase activities are shown only as bars, with no printed numbers, and are left out.
Protein complexes were generated using increasing peptide/protein w/w ratios.
Then, 0.25 mL of serum-free medium containing the peptide/protein complexes was transferred into each well. After an incubation time of 3 h at 37 °C the medium was removed, cells were washed once with 1 mL/well of PBS, and then 100 μL of lysis buffer was added per well. Luciferase activity and protein content were measured as described above.

Data set [2] relates to E. coli bacteria (ATCC 25922). The conditions noted are these: cited from earlier work. As for the experimental part:
Therefore, the antibacterial properties of both series of peptides were analyzed in Mueller–Hinton (MH) broth at pH 5 by determining the minimal inhibitory concentrations (MICs). […] Higher antimicrobial activity is observed when the angle increases. […] In contrast, for ...

Data set [3] concerns E. coli bacteria (ATCC 25922). Description: Broth microdilution antibacterial assay (MIC) in Mueller–Hinton broth, pH 5. The conditions noted are these: for MIC50: E. coli, Mueller–Hinton broth pH 5, x50 from Origin fits of the growth curves of Figure 3 (concentration range 100 µM to 0.52 µM), fit error given, * error estimated in the range of the 1.5-fold dilution steps. Type of data set: cell-based. The procedure:
Therefore, the antibacterial properties of both series of peptides were analyzed in Mueller–Hinton (MH) broth at pH 5 by determining the minimal inhibitory concentrations (MICs).
Figure 3 Bacterial growth as a function of peptide concentration for the LAH4-Ln (A) and the LAH4-An series (B). The average of two experimental data sets (each data point derived from triplicates under the same experiment conditions) covering the concentration range 100 µM to 0.52 µM are shown by the relative bacterial growth when compared to bacteria in the absence of peptide (=100%). To guide the eye, the data have been fitted with the function ymin + (ymax − ymin)/(1 + (x/xo)^p)^s using the OriginPro software. […] The assay was performed in Mueller–Hinton broth, pH 5.
A broth microdilution assay was used to determine the minimal inhibitory concentration (MIC). A peptide aliquot of 1 mg was first solubilized in 50% ethanol (10 mM) then diluted in H2O to get a 300 μM peptide stock solution.
For all the activity tests, E. coli bacteria (ATCC® 25922^TM, Thermo Fisher Scientific, Courtaboeuf, France) were used. Briefly, some colonies from E. coli spread on gelose were resuspended in Mueller–Hinton broth, pH 7.4. After incubation at 37 °C for about 6 h this preculture was diluted to OD550nm = 0.2 in MH at pH5 and allowed to grow to reach the exponential phase (OD550nm = 1–2). After two-step dilution in MH pH5, the working bacteria suspension corresponding to 1.10^5–2.10^5 colony-forming units (CFU)/mL was obtained.
The antimicrobial testing was carried out in 96-well microplates (sterile polystyrene untreated with F-bottom, Thermo Scientific Nunc A/S, Roskilde, Denmark). The first column of the plate contains the highest final concentration (Cf) of peptide to test (two experiments were done: the first one starting at Cf 100 μM and a second one starting at 30 μM). All samples were added to the first column of the plate and subsequently spread onto the plate by a 1.5-fold dilution series in 10 steps. The last columns correspond to the positive and negative control conditions, respectively. Finally, the bacterial working suspension was distributed (50 μL at 1.10^5–2.10^5 CFU/mL in MH1X at pH 5) to each well except for the negative control (MH1X at pH5). The final volume was 100 μL/well and the range of peptide concentrations tested was from 100 μM to 1.73 μM for the first experiment and from 30 μM to 0.52 μM for the second experiment. The microplates were incubated at 37 °C for 12 h before bacterial growth was assessed by measuring the OD600. The initial bacterial density for each experiment was checked by spreading 100 μL of the working bacterial suspension, diluted 1/100 and 1/500 in MH1X, pH 5 on MH agar plates. After overnight incubation at 37 °C, the CFU were counted and the CFU/mL were determined. The percentage of bacterial growth compared to the positive control allows one to determine the MIC. The MIC values represent the average of the lowest tested peptide concentration (from both experiments) where most (at least 80%) of the bacterial growth is inhibited.

For data set [4] the following is noted: in the transfection and other phosphate-containing buffers; cited from earlier work.
Data set [5] relates to VSV and GALVTR pseudotyped lentiviruses. The conditions noted are these: cited from earlier work.
For data set [6] the following is noted: naturally occurring antimicrobial peptides; cited from earlier work. From the text: The pronounced antimicrobial activities of cationic amphipathic peptides including LAH4 sequences have been associated with the perforation of microbial membranes. Indeed, under conditions where the peptides align along the membrane surface, high concentrations of LAH4 peptides result in the lysis of lipid bilayers. It is therefore unexpected that antimicrobial activity is highest for large hydrophilic angles, i.e., in inverse correlation with calcein release (Table 2, Figure 5). However, some of the naturally occurring antimicrobial pept ...

The test system of the next data set is U87 cells. The data set is described as follows: DNA transfection with p-Luc plasmid, luciferase expression. The conditions noted are these: 1.5 µg pDNA with 7.5-25 µg peptide, 2 h 30 min, read one day post-transfection, mean of duplicates, result in words.
Data set [7] deals with HCT116 cells. The data set is described as follows: Saporin delivery, MTS cell viability. The conditions noted are these: HCT116, 0.54 µg/triplicate non-complexed saporin, 2 h 30 min, MTS two days later; result in words. In kind it is cell-based, human. As for the experimental part: Figure 2 Transduction of the plant toxin saporin. HCT116 cells plated in 96-well plates were treated with 0.54 µg/triplicate of saporin in the absence or presence of LAH4 peptides (LAH4-Ln series in (A) and LAH4-An series in (B)). […] Two days later, an MTS assay was performed. The cell viability efficiency is expressed relative to untreated cells (=100%). […] For each peptide 3 conditions were tested: 4.05, 5.4 and 8.1 µg of peptide/0.54 µg saporin. Untreated cells (=100%; purple bar) and non-complexed saporin (black bar) were used as the control. The hydrophilic angles are shown on top in italics. […] The cell viability values appear only as bars and are not printed, so none are given. […]
Cell metabolic activity was measured by using an MTS (3-(4,5-dimethylthiazol-2-yl)-5-(3-carboxymethoxyphenyl)-2-(4-sulfophenyl)-2H-tetrazolium) assay (CellTiter 96® AQ ueous One Solution Cell Proliferation Assay, Promega). […] Plates were read at 490 nm (reagent absorbance) and 680 nm (background) (SP200, Safas, Monaco). The results were expressed by the subtraction of background absorbance and the expression of viability relative to non-treated controls (considered as 100% viability).

In brackets after ≈: the same amount, converted by molar mass. Several values for one entry are separate records, joined by “and”; a condition that tells them apart may be missing. Identical values can stand only once. Entries after “also recorded” stand apart in the source; their conditions may differ. Like-named read-outs stand apart in the source and are kept apart here. Where a SMILES comes first, the peptide text is derived from it.

Procedure for U87 cells: In vitro cell transfection experiments were performed using the plasmid p-Luc (7.6 kb), which is an expression plasmid encoding the firefly luciferase gene under the control of the human cytomegalovirus (CMV) immediate–early promoter. In total, 55,000 U87 cells were plated in 48-well plates one day before the experiment was performed. For transfection, 0.25 mL of serum-free culture medium containing the DNA complexes was deposited into each well of the duplicate. After incubation for approximately 2 h 30 min at 37 °C the medium was replaced with a fresh one containing serum. Luciferase activity was measured as described below in the cell lysate one day after transfection.
Transfection complexes were prepared as follows: for a duplicate, 1.5 μg of plasmid DNA and the desired amount of peptide were each diluted into 25 μL of acetate buffer pH 5 and gently mixed. DNA complexes were generated using increasing peptide/DNA w/w ratios. After 20 min of incubation at room temperature, the mixture was diluted with culture medium to obtain a final volume of 0.5 mL.
For luciferase activity, cells were harvested in 100 μL of lysis buffer (8 mM MgCl2, 1 mM DTT, 1 mM EDTA, 0.6% Triton X-100, 15% glycerol, and 25 mM Tris-phosphate buffer pH 7.8). The cell lysate was then transferred into Eppendorf tubes and centrifuged for 7 min at 10,000× g to pellet debris. Luciferase light units were measured in a 96-well plate format with a Centro LB luminometer (Berthold) from an aliquot of the supernatant (2 μL) with 1 s integration after automatic injection of 50 μL assay buffer (lysis buffer without Triton X-100 but supplemented with 2 mM ATP) and 50 μL of a luciferin solution (167 μM in water). Luciferase background was subtracted from each value and the protein content of the transfected cells was measured by Bradford dye-binding using the BioRad protein assay (Bio-Rad). The transfection efficiency was expressed as light units/s/mg protein (light units measured over a period of 1 s, and the values were then normalized after measurement of the amount of protein present in each well). The reported values are the mean of duplicates. Error bars represent the standard deviation of the mean.
glioblastoma U87 cells. Increasing amounts of peptide were mixed with a constant amount of reporter
plasmid (1.5 µg per duplicate of pDNA) and the complexes were incubated for 2h 30min with the
cells plated in 48-well plates. The transfection medium was then removed and replaced with fresh
culture medium supplemented with 10% serum. Luciferase activity was measured one day post-
transfection. The transfection efficiency is expressed as light units/s/mg protein and the reported
values are the mean of duplicates. Error bars represent the standard deviation of the mean.

For H-KKALLALALHHLAHLALHLALALKKA-NH2 [LAH4], the “luciferase protein transduction efficiency (luciferase activity, light units/s/mg protein)” value in the data set on HCT116 cells [1] is on record as “the most efficient peptides”. The “pH dependence of antimicrobial activity” value in data set [2] (E. coli, pH 5 compared to pH 7.5, result in words) is given as “considerably more pronounced at pH 5”. Besides, the MIC in data set [2] (reference peptide LAH4, E. coli) is recorded as 8.8 µM.
Turning to “H-KKALLHAALAHLLALAHHLLALLKKA-NH2 [LAH4-A4, isomer of LAH4, LAH4-An series, also named Vectofusin-1]”, in data set [3], the MIC50 is 6 µM. Also, the formation of fibers entry in data set [4] is recorded as “formation of fibers”. Moreover, the lentiviral transduction enhancement entry in data set [5] is recorded as “highly efficient; also recorded: enhances the transduction”.
With cecropin, the hydrophilic angle in data set [6] is 180 °.
Turning to magainin 2, the hydrophilic angle in data set [6] was 180 °.
As to `CC(C)C[C@H](NC(=O)[C@H](C)NC(=O)[C@H](CCCCN)NC(=O)[C@@H](N)CCCCN)C(=O)N[C@@H](CC(C)C)C(=O)N[C@@H](C)C(=O)N[C@@H](Cc1c[nH]cn1)C(=O)N[C@@H](C)C(=O)N[C@@H](CC(C)C)C(=O)N[C@@H](Cc1c[nH]cn1)C(=O)N[C@@H](CC(C)C)C(=O)N[C@@H](CC(C)C)C(=O)N[C@@H](C)C(=O)N[C@@H](CC(C)C)C(=O)N[C@@H](CC(C)C)C(=O)N[C@@H](C)C(=O)N[C@@H](CC(C)C)C(=O)N[C@@H](Cc1c[nH]cn1)C(=O)N[C@@H](CC(C)C)C(=O)N[C@@H](C)C(=O)N[C@@H](Cc1c[nH]cn1)C(=O)N[C@@H](C)C(=O)N[C@@H](CC(C)C)C(=O)N[C@@H](CCCCN)C(=O)N[C@@H](CCCCN)C(=O)N[C@@H](C)C(N)=O` [LAH4-L1] (H-KKALLAHALHLLALLALHLAHALKKA-NH2), in the data set on HCT116 cells [1], the “luciferase protein transduction efficiency (luciferase activity, light units/s/mg protein)” value was “among the least efficient”. In addition, the MIC in data set [3] (E. coli ATCC 25922, broth microdilution, Mueller–Hinton broth pH 5, 37 °C, 12 h, OD600, concentration at which bacterial growth reaches a minimum (at least 80% inhibited), average of two experiments, each in triplicate) is 20 µM and 17 µM. Besides, the MIC50 in data set [3] is 8.6 µM (≈ 23.9 µg/mL). Also, the “DNA transfection activity (luciferase activity)” value with U87 cells is recorded as “highest activity”.
For saporin, the “cell death induced by saporin alone” value with HCT116 cells [7] is listed as “low levels of cell death”.
For the molecule “H-KKALLHALLAHLAALLHALLAHLKKA-NH2 [LAH4-A5, isomer of LAH4, LAH4-An series]”, the “luciferase protein transduction efficiency (luciferase activity, light units/s/mg protein)” value in the data set on HCT116 cells [1] is “the most efficient peptides”. For the same molecule, in data set [3], the MIC50 was 5.3 µM. Moreover, the “DNA transfection activity (luciferase activity)” value in the data set on U87 cells is recorded as “high levels of activity”.

One may read the MIC as the lowest concentration that inhibits growth of the organism. Usually MIC50 stands for the lowest concentration that inhibits either 50% of growth or 50% of the strains tested, depending on the study.

The record behind these values is PMC8160934, “Different Biological Activities of Histidine-Rich Peptides Are Favored by Variations in Their Design” (Toxins, 2021).
